pIC50: −log10 of the molar value.
Target: T1, aromatase (cytochrome P450 aromatase) (Homo sapiens, UniProt P11511)
T1 construct: Human placentas were used; from tissue; host or cells: human placenta, microsomes (105,000 g pellet)
T1 sequence (P11511 1-503): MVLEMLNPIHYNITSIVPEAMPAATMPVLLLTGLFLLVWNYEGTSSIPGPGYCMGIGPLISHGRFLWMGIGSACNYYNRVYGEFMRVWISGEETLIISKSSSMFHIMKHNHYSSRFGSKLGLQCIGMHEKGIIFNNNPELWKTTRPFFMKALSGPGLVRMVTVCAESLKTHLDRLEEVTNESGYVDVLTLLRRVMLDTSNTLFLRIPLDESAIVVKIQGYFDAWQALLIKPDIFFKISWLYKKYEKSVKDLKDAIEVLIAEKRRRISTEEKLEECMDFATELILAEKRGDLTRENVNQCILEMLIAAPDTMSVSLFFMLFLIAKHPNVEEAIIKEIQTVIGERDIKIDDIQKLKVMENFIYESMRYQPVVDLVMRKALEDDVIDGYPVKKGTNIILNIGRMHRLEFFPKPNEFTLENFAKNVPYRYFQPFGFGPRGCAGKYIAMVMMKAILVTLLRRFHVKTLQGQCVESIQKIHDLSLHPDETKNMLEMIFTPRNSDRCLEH
Assay: Aromatase inhibition in human placental microsomes (tritiated water release from 1-2-(^3H)-androstenedione)
Format: biochemical
Settings: 25 micrograms protein per test, 60 nM androstene-dione substrate, NADPH, pH 7.2, 37° C., 10 minutes, read-out: IC50 (concentration of inhibitor necessary to decrease by 50% the enzymatic activity)
Method: Inhibition dependent on the concentration (measurement of the IC50 =concentration of the inhibitor necessary to reduce the enzymatic activity by 50%). Human placentas were used which one hour or more after birth were washed, perfused with physiological serum (5 liters) via the umbilical vein and then frozen at -40° C.
The placentas were thawed at 4° C., then homogenized (1:3) in a 10 mM phosphate buffer, pH=7.0, containing 100 mM of potassium chloride (KCl), 10 mM of dithiothreitol (DTT), 10 mM of ethylenediaminetetra-aceticacid (EDTA), 40 mM of nicotinamide and 250 mM of sucrose. The homogenates were then subjected to various stages of centrifugation until the "9000 g" supernatant was obtained (corresponding to cytosol and to endoplasmic reticulum). This supernatant was then subjected to an ultracentrifugation stage (90 minutes, 105,000 g) to obtain the microsome deposit. […] The protein concentration of the microsome suspension was determined by the BRADFORD method (BRADFORD, Anal. Biochem., Vol. 72 (1976), p. 248). […]
The enzymatic reaction was then very quickly started by the addition of 10 microliters of reduced nicotinamide adenine dinucleotide phosphate (NADPH) dissolved in water. […] After centrifugation, and for each tube, 100 microliters of supernatant was removed and counted in the presence of scintillating liquid. […]

SMILES	pIC50
C[C@]12CCC(=O)C(SCCl)=C1CC[C@@H]1[C@@H]2CC[C@]2(C)C(=O)CC[C@@H]12 [Example 2, 4-Chloromethylthio-Δ^4-androstene-3,17-dione]	7.12
C[C@]12CCC(=O)C(SCF)=C1CC[C@@H]1[C@@H]2CC[C@]2(C)C(=O)CC[C@@H]12 [Example 1, 4-fluoromethylthio-Δ^4-androstene-3,17-dione]	7.15

— patent publication US4988684A, “Novel 4-alkylthio-steroids” (Roussel Uclaf, priority 1988, dated 1991)
